Source: PubChem BioAssay AID330 (DTP/NCI, 2004)
Where “and” joins values, the source holds several entries; their conditions need not be identical. Equal entries are not always repeated. Toxic doses and inconclusive results are not listed. How the source made its calls: active means survival T/C of 150% or more; inactive means T/C below 125% in these data.

System: P388 leukemia ip, CD2F1 mice, survival T/C
Assay: NCI In Vivo Anticancer Drug Screen. Data for tumor model P388 Leukemia (intraperitoneal) in CD2F1 (CDF1) mice
Conditions: endpoint: median survival time, higher = longer survival
Method in brief: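 Mice carrying the transplanted tumor received test compound or vehicle. Survival was recorded in each group, and the value is the treated-group measurement divided by that of the vehicle-treated control group.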

[1] = dose: 50.0 mg/kg/injection, schedule: Q01DX009 (ip), vehicle: saline with Tween-80
[2] = dose: 100.0 mg/kg/injection, schedule: Q01DX009 (ip), vehicle: saline with Tween-80
[3] = dose: 200.0 mg/kg/injection, schedule: Q01DX009 (ip), vehicle: saline with Tween-80
[4] = dose: 100.0 mg/kg/injection, schedule: Q04DX003 (ip), vehicle: saline with Tween-80
[5] = dose: 100.0 mg/kg/injection, schedule: Q04DX003 (ip), vehicle: saline
[6] = dose: 200.0 mg/kg/injection, schedule: Q04DX003 (ip), vehicle: saline
[7] = dose: 50.0 mg/kg/injection, schedule: Q01DX005 (ip), vehicle: Klucel (hydroxypropylcellulose) (HPC)
[8] = dose: 100.0 mg/kg/injection, schedule: Q01DX005 (ip), vehicle: Klucel (hydroxypropylcellulose) (HPC)
[9] = dose: 200.0 mg/kg/injection, schedule: Q01DX005 (ip), vehicle: Klucel (hydroxypropylcellulose) (HPC)
[10] = dose: 60.0 mg/kg/injection, schedule: Q01DX005 (ip), vehicle: saline with Tween-80
[11] = dose: 120.0 mg/kg/injection, schedule: Q01DX005 (ip), vehicle: saline with Tween-80
[12] = dose: 100.0 mg/kg/injection, schedule: Q01DX001 (ip), vehicle: Klucel (hydroxypropylcellulose) (HPC)
[13] = dose: 200.0 mg/kg/injection, schedule: Q01DX001 (ip), vehicle: Klucel (hydroxypropylcellulose) (HPC)
[14] = dose: 400.0 mg/kg/injection, schedule: Q01DX001 (ip), vehicle: Klucel (hydroxypropylcellulose) (HPC)
[15] = dose: 50.0 mg/kg/injection, schedule: Q01DX005 (ip), vehicle: saline with Tween-80
[16] = dose: 6.25 mg/kg/injection, schedule: Q01DX005 (ip), vehicle: Klucel (hydroxypropylcellulose) (HPC)
[17] = dose: 12.5 mg/kg/injection, schedule: Q01DX005 (ip), vehicle: Klucel (hydroxypropylcellulose) (HPC)
[18] = dose: 25.0 mg/kg/injection, schedule: Q01DX005 (ip), vehicle: Klucel (hydroxypropylcellulose) (HPC)
[19] = dose: 12.5 mg/kg/injection, schedule: Q01DX009 (ip), vehicle: saline
[20] = dose: 25.0 mg/kg/injection, schedule: Q01DX009 (ip), vehicle: saline
[21] = dose: 50.0 mg/kg/injection, schedule: Q01DX009 (ip), vehicle: saline
[22] = dose: 50.0 mg/kg/injection, schedule: Q01DX009 (ip), vehicle: Klucel (hydroxypropylcellulose) (HPC)
[23] = dose: 100.0 mg/kg/injection, schedule: Q01DX009 (ip), vehicle: Klucel (hydroxypropylcellulose) (HPC)
[24] = dose: 100.0 mg/kg/injection, schedule: Q01DX005 (ip), vehicle: saline with Tween-80

Measured: T/C

[S-]c1n[n+](-c2ccccc2)c(-c2ccccc2)s1
inactive: [1] 100 % of control | [2] 100 % of control | [3] 93 % of control

O=C(CCl)SCc1ccccc1
inactive: [4] 107 % of control | dose: 200.0 mg/kg/injection, schedule: Q04DX003 (ip), vehicle: saline with Tween-80 99 % of control

CC(=O)OC1C/C(C)=C/CCC(C)/C=C/C2(C)CCC(C(C)(C)O)C12 (stereo not drawn)
inactive: dose: 8.0 mg/kg/injection, schedule: Q01DX009 (ip), vehicle: Klucel (hydroxypropylcellulose) (HPC) 105 % of control | dose: 16.0 mg/kg/injection, schedule: Q01DX009 (ip), vehicle: Klucel (hydroxypropylcellulose) (HPC) 106 % of control | dose: 32.0 mg/kg/injection, schedule: Q01DX009 (ip), vehicle: Klucel (hydroxypropylcellulose) (HPC) 106 % of control | dose: 64.0 mg/kg/injection, schedule: Q01DX009 (ip), vehicle: Klucel (hydroxypropylcellulose) (HPC) 106 % of control

COC(=O)CCCCC(=O)OC
inactive: [5] 109 % of control | [6] 109 % of control | dose: 400.0 mg/kg/injection, schedule: Q04DX003 (ip), vehicle: saline 109 % of control

CCN1COc2ccc3ccc4c(c3c2C1)CN(CC)CO4
inactive: [7] 101 % of control | [8] 101 % of control | [9] 102 % of control

CCOc1c(Br)cc(/C=C(\C)[N+](=O)[O-])cc1OC
inactive: [10] 112 % of control | [11] 106 % of control

C=Cn1c([N+](=O)[O-])cnc1/C=C/c1ccc(C#N)cc1
inactive: [12] 94 % of control | [13] 96 % of control | [14] 93 % of control

O=C1CCSC(=O)N1c1ccc(F)cc1
inactive: dose: 100.0 mg/kg/injection, schedule: Q04DX002 (ip), vehicle: saline with Tween-80 100 % of control | dose: 200.0 mg/kg/injection, schedule: Q04DX002 (ip), vehicle: saline with Tween-80 105 % of control | dose: 400.0 mg/kg/injection, schedule: Q04DX002 (ip), vehicle: saline with Tween-80 99 % of control

C=C1[C@H]2C[C@H]2[C@]2(C)C=C3OC(=O)C(C)=C3C[C@@H]12
inactive: dose: 5.5 mg/kg/injection, schedule: Q01DX005 (ip), vehicle: Klucel (hydroxypropylcellulose) (HPC) 94 % of control | dose: 11.0 mg/kg/injection, schedule: Q01DX005 (ip), vehicle: Klucel (hydroxypropylcellulose) (HPC) 98 % of control | dose: 22.0 mg/kg/injection, schedule: Q01DX005 (ip), vehicle: Klucel (hydroxypropylcellulose) (HPC) 100 % of control | dose: 44.0 mg/kg/injection, schedule: Q01DX005 (ip), vehicle: Klucel (hydroxypropylcellulose) (HPC) 94 % of control | dose: 80.0 mg/kg/injection, schedule: Q01DX005 (ip), vehicle: Klucel (hydroxypropylcellulose) (HPC) 91 % of control

COc1ccc(Cc2cc(N=NC(N)=O)c(OC)cc2O)cc1
inactive: dose: 12.5 mg/kg/injection, schedule: Q01DX005 (ip), vehicle: saline with Tween-80 93 % of control | dose: 25.0 mg/kg/injection, schedule: Q01DX005 (ip), vehicle: saline with Tween-80 87 % of control | [15] 88 % of control

N#CC1C2C1C1C=CC2n2c(=O)n(-c3ccccc3)c(=O)n21 (stereo not drawn)
inactive: [16] 99 % of control | [17] 102 % of control | [18] 108 % of control and 98 % of control | [7] 99 % of control and 111 % of control

C=CC(=NC(C)(C)C)Nc1ccccc1C(=O)OC
inactive: [19] 108 % of control | [20] 107 % of control | [1] 101 % of control | [21] 108 % of control

O=c1c2c([nH]c3c1c1[nH]c4c(c(=O)c1c1[nH]c5c(c(=O)c31)CCCC5)CCCC4)CCCC2
inactive: dose: 25.0 mg/kg/injection, schedule: Q04DX003 (ip), vehicle: saline with Tween-80 104 % of control | dose: 50.0 mg/kg/injection, schedule: Q04DX003 (ip), vehicle: saline with Tween-80 95 % of control | [4] 87 % of control and 95 % of control

O=C(Cc1ccc([N+](=O)[O-])cc1)ON1C(=O)CCC1=O
inactive: [10] 117 % of control | [11] 114 % of control

C/C(=N\Nc1cc(C)nc2cc3c(cc12)OCO3)c1cn(C)n(-c2ccccc2)c1=O
inactive: dose: 3.12 mg/kg/injection, schedule: Q01DX005 (ip), vehicle: Klucel (hydroxypropylcellulose) (HPC) 97 % of control | [16] 97 % of control | [17] 103 % of control and 96 % of control | [18] 100 % of control | [7] 98 % of control and 110 % of control | [8] 109 % of control

Nc1nc(Cl)c(N=Nc2ccccc2)c(=O)[nH]1
inactive: dose: 7.5 mg/kg/injection, schedule: Q01DX005 (ip), vehicle: saline with Tween-80 111 % of control | dose: 15.0 mg/kg/injection, schedule: Q01DX005 (ip), vehicle: saline with Tween-80 105 % of control | dose: 30.0 mg/kg/injection, schedule: Q01DX005 (ip), vehicle: saline with Tween-80 99 % of control and 108 % of control | [10] 101 % of control and 109 % of control

FC(F)(F)c1ccccc1NC(=S)SCc1ccc2c(c1)OCO2
inactive: [19] 97 % of control | [20] 90 % of control | [21] 100 % of control

COc1ccc(NC(CCN2CCN(c3ccccc3)CC2)=NC(C)(C)C)cc1
inactive: [22] 96 % of control | [23] 96 % of control

O=Cc1ccc2c(c1)C(O)NC(=O)O2 (stereo not drawn)
inactive: [15] 100 % of control | [24] 101 % of control

CCCCCCCCCC1c2[nH]c3ccccc3c2C(=O)NN1C(C)=O (stereo not drawn)
inactive: [12] 98 % of control | [13] 98 % of control | [14] 104 % of control

Cc1ccc(SCC(=O)O)c(C)c1
inactive: [1] 88 % of control | [2] 88 % of control | [3] 94 % of control | dose: 400.0 mg/kg/injection, schedule: Q01DX009 (ip), vehicle: saline with Tween-80 103 % of control

CCN(CC)c1ccc2cc(S(=O)(=O)c3ccc(Cl)cc3)c(=O)oc2c1
inactive: [15] 86 % of control | [24] 92 % of control

O=C(/C=C/c1cccc(Cl)c1)c1ccccc1
inactive: [22] 102 % of control | [23] 104 % of control | dose: 150.0 mg/kg/injection, schedule: Q01DX009 (ip), vehicle: Klucel (hydroxypropylcellulose) (HPC) 110 % of control | dose: 200.0 mg/kg/injection, schedule: Q01DX009 (ip), vehicle: Klucel (hydroxypropylcellulose) (HPC) 122 % of control

C1CCC(C2CCCC[N-]2)[N-]C1.[Cl][Ru+2][Cl] (stereo not drawn)
inactive: dose: 7.5 mg/kg/injection, schedule: Q01DX005 (ip), vehicle: saline 103 % of control | dose: 15.0 mg/kg/injection, schedule: Q01DX005 (ip), vehicle: saline 100 % of control | dose: 30.0 mg/kg/injection, schedule: Q01DX005 (ip), vehicle: saline 103 % of control

CCCCOc1ccc(NC(=O)Nc2nnc(C)s2)cc1
inactive: [1] 99 % of control | [2] 89 % of control | [3] 86 % of control

O=C(O)c1cc2cc3c(cc2c2ccccc12)OCO3
inactive: [7] 100 % of control | [8] 106 % of control | [9] 108 % of control

[CH3][Sn]1([CH3])[O]C(=O)c2ccccc2C(=O)[O]1
inactive: dose: 12.5 mg/kg/injection, schedule: Q01DX001 (ip), vehicle: Klucel (hydroxypropylcellulose) (HPC) 102 % of control and 111 % of control | dose: 25.0 mg/kg/injection, schedule: Q01DX001 (ip), vehicle: Klucel (hydroxypropylcellulose) (HPC) 101 % of control and 102 % of control | dose: 50.0 mg/kg/injection, schedule: Q01DX001 (ip), vehicle: Klucel (hydroxypropylcellulose) (HPC) 100 % of control

CC(C)(C)c1cc2c(O)c(c1)Cc1cc(C(C)(C)C)cc(c1O)Cc1cc(C(C)(C)C)cc(c1O)Cc1cc(C(C)(C)C)cc(c1O)Cc1cc(C(C)(C)C)cc(c1O)Cc1cc(C(C)(C)C)cc(c1O)C2
inactive: [7] 99 % of control | [8] 92 % of control | [9] 92 % of control

CC(=O)NN
inactive: [1] 104 % of control | dose: 50.0 mg/kg/injection, schedule: Q04DX003 (ip), vehicle: saline 105 % of control | [5] 100 % of control | [6] 100 % of control
